Laboratory results as given in PubChem BioAssay AID248 (DTP/NCI, 2004).
Several values for one entry are separate records, joined by “and”; a condition that tells them apart may be missing. Equal values may be shown once. Toxic doses and inconclusive results are not listed. Cut-off read from the data, not from the text of the source: active = T/C of 150% or more; inactive = T/C below 125%.

Tested on: L1210 leukemia ip in BDF1 mice, survival T/C
Experiment: NCI In Vivo Anticancer Drug Screen. Data for tumor model L1210 Leukemia (intraperitoneal) in B6D2F1 (BDF1) mice
Settings: endpoint: mean survival time, higher = longer survival
Method in brief: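 Antitumor effect is assessed in tumor-bearing animals. Survival in the compound arm is compared with a vehicle-dosed control arm and expressed as their quotient.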

[1] = dose: 100.0 mg/kg/injection, schedule: Q01DX009 (ip), vehicle: Klucel (hydroxypropylcellulose) (HPC)
[2] = dose: 200.0 mg/kg/injection, schedule: Q01DX009 (ip), vehicle: Klucel (hydroxypropylcellulose) (HPC)
[3] = dose: 400.0 mg/kg/injection, schedule: Q01DX009 (ip), vehicle: Klucel (hydroxypropylcellulose) (HPC)
[4] = dose: 50.0 mg/kg/injection, schedule: Q01DX001 (ip), vehicle: saline
[5] = dose: 100.0 mg/kg/injection, schedule: Q01DX001 (ip), vehicle: saline
[6] = dose: 200.0 mg/kg/injection, schedule: Q01DX001 (ip), vehicle: saline
[7] = dose: 12.5 mg/kg/injection, schedule: Q01DX009 (ip), vehicle: saline with Tween-80
[8] = dose: 25.0 mg/kg/injection, schedule: Q01DX009 (ip), vehicle: saline with Tween-80
[9] = dose: 50.0 mg/kg/injection, schedule: Q01DX009 (ip), vehicle: saline with Tween-80
[10] = dose: 400.0 mg/kg/injection, schedule: Q01DX001 (ip), vehicle: saline

Measured: T/C

CCCCC1CN2CCc3cc(OC)c(OC)cc3C2CC1=O (stereo not drawn)
inactive: dose: 50.0 mg/kg/injection, schedule: Q01DX009 (ip), vehicle: Klucel (hydroxypropylcellulose) (HPC) 96 % of control and 97 % of control | [1] 89 % of control and 103 % of control | [2] 94 % of control and 96 % of control | [3] 97 % of control

O=C(Nc1ccc(Cl)cc1)Nc1ncn[nH]1
inactive: dose: 75.0 mg/kg/injection, schedule: Q01DX001 (ip), vehicle: carboxymethylcellulose (CMC) 101 % of control | dose: 150.0 mg/kg/injection, schedule: Q01DX001 (ip), vehicle: carboxymethylcellulose (CMC) 97 % of control | dose: 300.0 mg/kg/injection, schedule: Q01DX001 (ip), vehicle: carboxymethylcellulose (CMC) 95 % of control

O=C/C=C/c1cccc([N+](=O)[O-])c1
inactive: [4] 102 % of control | [5] 107 % of control | [6] 111 % of control

Cn1c([N+](=O)[O-])cnc1/C=[N+](/C)[O-]
inactive: dose: 100.0 mg/kg/injection, schedule: Q04DX002 (ip), vehicle: saline 107 % of control | dose: 200.0 mg/kg/injection, schedule: Q04DX002 (ip), vehicle: saline 100 % of control | dose: 400.0 mg/kg/injection, schedule: Q04DX002 (ip), vehicle: saline 107 % of control

CCN(CC)C(=S)[S][Pb]([c]1ccccc1)([c]1ccccc1)[c]1ccccc1
inactive: dose: 100.0 mg/kg/injection, schedule: Q01DX001 (ip), vehicle: steriod suspending solution 97 % of control | dose: 200.0 mg/kg/injection, schedule: Q01DX001 (ip), vehicle: steriod suspending solution 92 % of control

S=C1NC(c2cccs2)N2C(=S)NC(c3cccs3)N12 (stereo not drawn)
inactive: dose: 100.0 mg/kg/injection, schedule: Q01DX009 (ip), vehicle: gum acacia 96 % of control | dose: 100.0 mg/kg/injection, schedule: Q04DX003 (ip), vehicle: gum acacia 92 % of control | dose: 200.0 mg/kg/injection, schedule: Q01DX009 (ip), vehicle: gum acacia 91 % of control | dose: 200.0 mg/kg/injection, schedule: Q04DX003 (ip), vehicle: gum acacia 97 % of control | dose: 400.0 mg/kg/injection, schedule: Q01DX009 (ip), vehicle: gum acacia 98 % of control | dose: 400.0 mg/kg/injection, schedule: Q04DX003 (ip), vehicle: gum acacia 97 % of control

CCc1c(/C=C2/OC(=O)NC2=O)[nH]c(=S)[nH]c1=O
inactive: dose: 100.0 mg/kg/injection, schedule: Q04DX003 (ip), vehicle: saline with Tween-80 97 % of control | dose: 200.0 mg/kg/injection, schedule: Q04DX003 (ip), vehicle: saline with Tween-80 96 % of control | dose: 400.0 mg/kg/injection, schedule: Q04DX003 (ip), vehicle: saline with Tween-80 96 % of control

Nc1nc2nc3c(nc2c(=O)[nH]1)CN(c1ccc(C(=O)O)cc1)C3=O
inactive: [7] 90 % of control | [8] 94 % of control | [9] 87 % of control

CC1CCC(C)C([N+](C)(C)C)C1 (stereo not drawn)
inactive: dose: 12.5 mg/kg/injection, schedule: Q04DX003 (ip), vehicle: saline 98 % of control | dose: 25.0 mg/kg/injection, schedule: Q04DX003 (ip), vehicle: saline 98 % of control | dose: 50.0 mg/kg/injection, schedule: Q04DX003 (ip), vehicle: saline 95 % of control | dose: 75.0 mg/kg/injection, schedule: Q04DX003 (ip), vehicle: saline 93 % of control

CNC(=O)Nc1ccccc1C(=O)OC
inactive: [1] 100 % of control | dose: 100.0 mg/kg/injection, schedule: Q04DX003 (ip), vehicle: Klucel (hydroxypropylcellulose) (HPC) 97 % of control | [2] 98 % of control | dose: 200.0 mg/kg/injection, schedule: Q04DX003 (ip), vehicle: Klucel (hydroxypropylcellulose) (HPC) 97 % of control | [3] 98 % of control | dose: 400.0 mg/kg/injection, schedule: Q04DX003 (ip), vehicle: Klucel (hydroxypropylcellulose) (HPC) 101 % of control

COc1ccc(C2=C(C)CC3c4cc(OC)c(OC)cc4CCN3C2)cc1OC (stereo not drawn)
inactive: dose: 52.0 mg/kg/injection, schedule: Q01DX001 (ip), vehicle: carboxymethylcellulose (CMC) 101 % of control | dose: 78.0 mg/kg/injection, schedule: Q01DX001 (ip), vehicle: carboxymethylcellulose (CMC) 104 % of control | dose: 177.0 mg/kg/injection, schedule: Q01DX001 (ip), vehicle: carboxymethylcellulose (CMC) 118 % of control

NC12C3(Cl)C4(Cl)C5(OCCO5)C5(Cl)C3(Cl)C1(Cl)C5(Cl)C24Cl (stereo not drawn)
inactive: [4] 102 % of control | [5] 102 % of control | [6] 90 % of control | [10] 102 % of control

Nc1ccc2c(c1)C(=O)CCCC2
inactive: dose: 100.0 mg/kg/injection, schedule: Q01DX001 (ip), vehicle: carboxymethylcellulose (CMC) 102 % of control | dose: 200.0 mg/kg/injection, schedule: Q01DX001 (ip), vehicle: carboxymethylcellulose (CMC) 104 % of control | dose: 400.0 mg/kg/injection, schedule: Q01DX001 (ip), vehicle: carboxymethylcellulose (CMC) 98 % of control

Cc1nnc(NC(=O)CCl)s1
inactive: dose: 100.0 mg/kg/injection, schedule: Q01DX001 (ip), vehicle: other 107 % of control | [1] 98 % of control | dose: 100.0 mg/kg/injection, schedule: Q04DX003 (ip), vehicle: other 98 % of control | dose: 200.0 mg/kg/injection, schedule: Q01DX001 (ip), vehicle: other 100 % of control | dose: 200.0 mg/kg/injection, schedule: Q04DX003 (ip), vehicle: other 106 % of control | dose: 400.0 mg/kg/injection, schedule: Q01DX001 (ip), vehicle: other 98 % of control | dose: 400.0 mg/kg/injection, schedule: Q04DX003 (ip), vehicle: other 101 % of control

COc1ccc(/C=C/c2ccc3ccccc3[n+]2C)cc1
inactive: [7] 94 % of control | [8] 115 % of control | dose: 25.0 mg/kg/injection, schedule: Q04DX003 (ip), vehicle: Klucel (hydroxypropylcellulose) (HPC) 101 % of control | [9] 115 % of control | dose: 50.0 mg/kg/injection, schedule: Q04DX003 (ip), vehicle: Klucel (hydroxypropylcellulose) (HPC) 106 % of control

O=c1cc(O)c2c(O)cc(O)cc2o1
inactive: [5] 96 % of control | [6] 96 % of control | [10] 88 % of control

COC1OC(C)CC(O)C1O (stereo not drawn)
inactive: dose: 100.0 mg/kg/injection, schedule: Q04DX003 (ip), vehicle: saline 97 % of control | dose: 200.0 mg/kg/injection, schedule: Q04DX003 (ip), vehicle: saline 103 % of control | dose: 400.0 mg/kg/injection, schedule: Q04DX003 (ip), vehicle: saline 109 % of control

CCOC(=O)Nc1cc(Cl)ccc1OC
inactive: [1] 107 % of control | [2] 91 % of control | [3] 93 % of control
